Experiments:
U251 glioblastoma cells [1] = test: Sulforhodamine B (SRB) growth inhibition assay; type: cell-based, human; settings: U251; 48 h SRB; Table 1, Table 2 (FIG. 64), FIG. 63
Procedure: Cells experiencing methuosis initially undergo extreme cytoplasmic vacuolization which can be readily assessed by phase contrast microscopy. As viability is compromised (usually between 24-48 h), the cells detach from the culture surface and lose membrane integrity. […] Although methuosis can occur in a broad spectrum of human tumor cell lines, SAR studies were carried out with U251 glioblastoma cells. Therefore, this cell line was used in the present evaluation.
Total protein in adherent cells was measured by the sulforhodamine B (SRB) colorimetric assay, following standard procedures for anticancer drug screening used by the U.S. National Cancer Institute. […] On the day after plating, four wells were assayed to establish a pre-drug (time-0) baseline. Test compounds were diluted as described above and added to the remaining wells. The medium and compounds were replenished after 24 hr. SRB assays were performed at a 48 h endpoint as described, using a SpectraMax Plus 384 plate reader (Molecular Devices, Sunnyvale, Calif.) to determine absorbance at 515 nm.
Cells were seeded in 96-well plates as described in the methods. After 24 h, each compound was added at the indicated concentrations and SRB assays were performed after an additional 48 h. Each point represents the mean±SD of values from four wells. The dotted line on each graph indicates the average absorbance of four wells sampled at time-0 (i.e., the time that the compounds were added).
The human U251 glioblastoma cell line was obtained from the DCT Tumor Repository (National Cancer Institute, Fredrick, Md.). […] All test compounds were dissolved in DMSO and serially diluted in DMSO so that the desired final drug concentrations could be achieved by making a 1/1000 dilution into the culture medium. One day after plating, four wells were assayed to establish a pre-drug (time-0) baseline. At the same time, fresh medium containing test compounds was added to the remaining wells. Control wells received DMSO alone. SRB assays were performed at a 48 h endpoint. To minimize the impact of potential variations in stability among the compounds, medium with test compound was replenished after the first 24 h.

U251 glioblastoma cells [2] = test: Classification by cellular phenotype induced in cultured cells; type: cell-based, human; settings: FIG. 72
U251 glioblastoma cells [3] = test: Cell morphology / vacuolization by phase-contrast microscopy; type: cell-based, human; settings: concentration not singled out ([…] and 10 μM or as in figure)
U251 glioblastoma cells [4] = test: Cell cycle analysis by flow cytometry (DNA histograms); type: cell-based, human; settings: 24 h, 3 μM (FIGS. 69A-69B)
[5] = Stability on storage in DMSO (1H NMR); type: physicochemical
Excerpt: Derivatives substituted with hydroxyl-functionality were synthesized based upon the results obtained in previous SAR studies for 2-substituted indole. Subtle chemical modifications at this position can alter activity, and are sensitive to both steric and electronic properties. […] Previously prepared intermediate ethyl 5-methoxyindole-2-carboxylate (302) was reduced by LAH to 425, which was then protected by acetylating the primary hydroxyl group (426). The acetyl group was then hydrolyzed during the alkaline conditions used to quench the acidic reagents generated during Vilsmeier's step that produce aldehyde 427. […] Alcohol 425 was oxidized to 5-methoxyindole-2-carboxaldehyde (428) by MnO2 in EtOAc heated to reflux. The aldehyde was subjected toWittig conditions using phosphonium ylide (Ph3CHCO2C2H5) to produce the α,β-unsaturated ester 429, which was reduced to 2-hydroxypropylindole 430 using excess LAH. The primary hydroxyl group was protected as the O-acetate (431) under conditions of excess acetic anhydride, TEA and CH3CN. […] As anticipated, the O-acetyl group was hydrolyzed under these conditions.
5-Methoxy-2-hydroxymethylindole-3-carboxaldehyde 427 (75 mg, 0.37 mmol), 4-acetylpyridine (118 mg, […]), and piperidine (82.6 mg, […]) were dissolved in methanol (1 mL) and heated to reflux. The reaction mixture was stirred for 45 min during which the solution became bright orange. The flask was then removed from heat and allowed to stir for 1 h. A precipitate formed which was collected, washed with ice-cold MeOH (5 mL) and dried in a vacuum desiccator for 24 h to yield an orange solid (28 mg, 24%). mp 229-230° C. TLC Rf 0.65 (6% MeOH/DCM), 0.21 (80% EtOAc/hexanes). […] 13C NMR (150 MHz, d6-DMSO) δ 188.2, 155.2, 150.6, 148.0, 145.0, 139.3, 131.0, 126.7, 121.4, 113.8, 113.0, 111.6, 108.3, 103.4, 55.57, 55.32. Elemental analysis calculated for C18H16N2O3.0.033 MeOH: C, 70.00; H, 5.26; N, 9.05. Found: C, 69.61; H, 5.09; N, 8.90. […] When stored in its isolated precipitate form, this compound is stable.

U251 glioblastoma cells [6] = test: Effect of filipin, bafilomycin A1 or EHT 1864 on MIPP-induced vacuoles; type: cell-based, human; settings: 10 μM MIPP with 12 μg/ml filipin, 0.1 μM bafilomycin A1 or 25 μM EHT 1864
Procedure: To inhibit clathrin-independent endocytosis, U251 cells were washed twice with serum-free DMEM, then pretreated for 30 min with DMEM+0.5% BSA in the presence or absence of 12 μg/ml filipin. Following the pretreatment, MIPP was added to the dishes at a final concentration of 10 μM and phase-contrast images were acquired 100 min later. To inhibit the vacuolar-type H^+ ATPase, U251 cells were pretreated for 1 h with 0.1 μM bafilomycin A1 or an equivalent volume of DMSO. At the end of the hour, 10 μM MIPP, or an equivalent volume of DMSO, was added without a medium change. Phase-contrast images of the cells were acquired 1 h after the addition of MIPP. […] The percentage of vacuolated cells in the population was determined by scoring at least 100 cells in multiple phase-contrast photomicrographs for each condition. Cells containing three or more phase-lucent vacuoles with diameters ≧0.5 μm or >10 smaller vacuoles (0.1-0.5 μm) were scored as positive. For comparison, the effect of EHT 1864 on Ras-induced vacuolization was also determined. […] After 24 h, phase-contrast images were taken and the number of vacuolated cells was scored as described above.

porcine tubulin = target: T1, porcine tubulin (Sus scrofa, UniProt P02550+P02554); test: Cell-free fluorescence-based tubulin polymerization assay; type: biochemical; settings: final concentration 3 μM (FIG. 61)
T1 construct: purchased Cytoskeleton, Inc. BK011P

[7] = Stability during workup, manipulation or storage; type: physicochemical; settings: among ester series 120, 125, 310, 309
Procedure: Expanding previous SAR studies of 2-indolyl alkyl substitutions, additional functionalized probes were prepared as depicted in Schemes 4-7. […] Excellent regioselectivity was achieved by the di-lithio species derived from 418 and sec-butyllithium in THF at −40° C. Cyclization and deprotection occurred in a one-pot fashion with excess TFA affording 5-methoxy-2-trifluoromethylindole (203). Synthesis of aldehyde 204 and condensation to the final trifluoromethyl target 124 were accomplished by standard methods. Alkyl carboxylates (301-304) were synthesized from commercially available acid 300 by Fisher esterification conditions using their corresponding alcohols (Scheme 4E, FIG. 78). Formylation reactions to yield aldehydes 305-308, followed by Claisen-Schmidt condensation to provide 120, 125, 310, 309, were conducted as previously described. […] Without wishing to be bound by theory, it is believed this is owing to its better leaving group among this series.

T1 sequence (P02550 whole entry): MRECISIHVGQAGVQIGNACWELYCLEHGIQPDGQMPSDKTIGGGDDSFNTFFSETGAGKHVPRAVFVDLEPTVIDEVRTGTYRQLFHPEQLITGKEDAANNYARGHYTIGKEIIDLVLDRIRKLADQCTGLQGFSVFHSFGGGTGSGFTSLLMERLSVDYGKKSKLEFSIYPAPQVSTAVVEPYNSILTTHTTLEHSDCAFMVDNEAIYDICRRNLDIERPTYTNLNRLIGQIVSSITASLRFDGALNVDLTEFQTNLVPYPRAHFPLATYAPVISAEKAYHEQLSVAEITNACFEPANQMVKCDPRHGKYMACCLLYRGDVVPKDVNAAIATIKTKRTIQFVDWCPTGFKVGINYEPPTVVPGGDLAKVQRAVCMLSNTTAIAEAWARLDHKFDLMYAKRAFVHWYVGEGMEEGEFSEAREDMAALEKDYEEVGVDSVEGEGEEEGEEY
T1 sequence (P02554 whole entry): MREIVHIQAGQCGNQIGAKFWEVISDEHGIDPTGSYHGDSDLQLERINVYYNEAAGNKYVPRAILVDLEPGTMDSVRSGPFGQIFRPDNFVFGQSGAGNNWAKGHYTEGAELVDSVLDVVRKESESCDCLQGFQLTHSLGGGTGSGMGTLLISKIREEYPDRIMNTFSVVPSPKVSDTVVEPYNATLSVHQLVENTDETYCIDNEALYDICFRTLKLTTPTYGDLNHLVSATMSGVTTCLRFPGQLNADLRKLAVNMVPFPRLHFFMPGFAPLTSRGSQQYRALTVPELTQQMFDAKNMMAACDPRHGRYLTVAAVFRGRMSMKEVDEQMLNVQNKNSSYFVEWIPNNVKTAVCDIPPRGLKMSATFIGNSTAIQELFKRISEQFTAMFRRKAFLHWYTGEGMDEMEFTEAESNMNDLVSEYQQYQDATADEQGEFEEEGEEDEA

With “3-(2-hydroxypropyl-5-methoxy-indole-3-yl)-1-(4-pyridinyl)-2-propen-1-one [402q]” the “growth inhibitory (GI) activity, in words” value (U251 glioblastoma cells [1]) was “GI values in the low micromolar range”, the “class of cellular phenotype” value (U251 glioblastoma cells [2]) was “Class 2” and the “cell morphology / vacuolization” value (U251 glioblastoma cells [3]) was “extensive accumulation of large cytoplasmic vacuoles, with loss of viable adherent cells at concentrations >2.5 μM”.

In the case of COc1ccc2[nH]c(C(=O)[O-])c(/C=C/C(=O)c3ccncc3)c2c1.[Na+] [402o, sodium trans-3-(5-methoxyindol-2-carboxylate-3-yl)-1-(4-pyridinyl)-2-propen-1-one], the “cell cycle distribution (G2/M, sub-G1/G0)” value (U251 glioblastoma cells [4]) was “no detectable effect on cell cycle distribution” and the “growth inhibitory (GI) activity, in words” value (U251 glioblastoma cells [1]) was “either markedly attenuated or completely eliminated”.

With COc1ccc2[nH]c(CO)c(C=CC(=O)c3ccncc3)c2c1 [402p, 3-(2-hydroxymethyl-5-methoxy-1H-indole-3-yl)-1-(4-pyridinyl)-2-propen-1-one] the “stability in DMSO, in words” value ([5]; storage in DMSO) was “unstable when stored at rt in DMSO for 48 h”, the degraded ([5]; stored in d6-DMSO, after 48 h, 1H NMR) was ~50% and the “stability as isolated precipitate” value ([5]; stored in its isolated precipitate form) was “stable”.

With CO/C1=C\C(C)=C\[C@@H](C)[C@@H](O)[C@@H](C)C/C(C)=C/C=C/[C@H](OC)[C@@H]([C@@H](C)[C@@H](O)[C@H](C)[C@@]2(O)C[C@@H](O)[C@H](C)[C@@H](C(C)C)O2)OC1=O [Baf-A, bafilomycin A1] the “effect on induction of vacuoles by MIPP” value (U251 glioblastoma cells [6]) was “completely abrogated the ability of the cells to generate vacuoles when they were exposed to MIPP”.

With O=c1cc(CN2CCOCC2)occ1OCCCCCSc1ccnc2cc(C(F)(F)F)ccc12 [EHT 1864] the “effect on induction of vacuoles by MIPP” value (U251 glioblastoma cells [6]) was “no detectable effect on vacuole formation”.

In the case of COc1ccc2[nH]c(C)c(/C=C/C(=O)c3ccncc3)c2c1 [MOMIPP, trans-3-(5-methoxy-2-methyl-1H-indol-3-yl)-1-(4-pyridinyl)-2-propen-1-one], the “inhibition of tubulin polymerization” value (porcine tubulin) was “superimposable with the DMSO control”.

With CN[C@H]1CCc2cc(OC)c(OC)c(OC)c2-c2ccc(OC)c(=O)cc21 [colcemid, reference compound] the “cell cycle distribution (G2/M, sub-G1/G0)” value (U251 glioblastoma cells [4]) was “significantly decreased compared to the DMSO control (p≦0.05)”.

For COc1ccc2[nH]c(C(F)(F)F)c(/C=C/C(=O)c3ccncc3)c2c1 [compound 124, trans-3-(5-methoxyindol-2-trifluoromethyl-3-yl)-1-(4-pyridinyl)-2-propen-1-one], the “inhibition of tubulin polymerization” value (porcine tubulin) was “partially inhibited tubulin polymerization”.

In the case of CCOC(=O)c1[nH]c2ccc(OC)cc2c1/C=C/C(=O)c1ccncc1 [compound 125, ethyl trans-3-(5-methoxyindol-2-carboxylate-3-yl)-1-(4-pyridinyl)-2-propen-1-one], the “inhibition of tubulin polymerization” value (porcine tubulin) was “partially inhibited tubulin polymerization”.

With COc1ccc2[nH]c(C(=O)OC(C)C)c(/C=C/C(=O)c3ccncc3)c2c1 [compound 309, isopropyl trans-3-(5-methoxyindol-2-carboxylate-3-yl)-1-(4-pyridinyl)-2-propen-1-one] the sensitivity to hydrolysis [7] was “most sensitive to hydrolysis during workup and subsequent manipulation or storage”.

For CCCCC[C@@H](O)[C@H]1C(=O)O[C@H](C)[C@@H](O)/C=C/C=C/C=C/C=C/C=C(\C)[C@@H](O)C[C@H](O)C[C@H](O)C[C@H](O)C[C@H](O)C[C@H](O)C[C@@H]1O [filipin], the “effect on induction of vacuoles by MIPP” value (U251 glioblastoma cells [6]) was “failed to show the typical morphological response to MIPP”.

— patent publication US9061994B1, “Materials and methods useful to induce vacuolization, cell death, or a combination thereof” (The University of Toledo, priority 2011, dated 2015)
